Data as given in US10954258B2, “STAT3 dimerization inhibitors” (H. LEE MOFFITT CANCER CENTER AND RESEARCH INSTITUTE, INC., priority 2012, dated 2021).

How the values were obtained:
Type in all cases: cell-based, human
[1] = target: binding of FLAG-STAT3 to HA-STAT3 (Mus musculus, UniProt P42227); test: co-immunoprecipitation of FLAG-STAT3 with HA-STAT3 in HEK293 cells; settings: HEK293 cells co-expressing FLAG- and HA-STAT3; treated 4 h
Procedure: HEK-293/FLAG-STAT3/HA-STAT3 cells were treated for 4 h with vehicle, S3I-1757, S3I-1756, Ac-G{pTYR}LPQTV-[…]-NH2 (SEQ ID NO:3) or Ac-GYLPQTV-[…]-NH2 (SEQ ID NO:4) and then lysed in 20 mM Tris-HCl (pH 7.4), 5 mM EDTA, 10 mM Na4P2O7, 100 mM NaF, 2 mM Na3VO4, 1% NP-40.1 mM PMSF and 10 mg/ml aprotinin. For EGF stimulation group, HEK-293/FLAG-STAT3/HASTAT3 cells were treated by 100 ng/ml EGF for 30 minutes before making cell lysate. Protein A or G agarose (EMD Millipore, Billerica, Mass., USA) was washed twice with PBS and restore to 50% slurry with PBS. 500 μg of lysate were pre-cleared by mixture of protein A and protein G-agarose for 1 h at 4° C. and then remove protein A and G-agarose by centrifuge at 1300 rpm for 3 minutes. And then 500 μg of lysate was immunoprecipitated with 50 ng of HA antibody overnight at 4° C. on shaker and then capture the immunocomplex by adding 100 μl Protein A and G agarose/sepharose bead slurry for 1 hour at 4° C. Samples were washed five times with lysis buffer and then boiled in 5×SDS-PAGE sample buffer and run on SDS-PAGE gel. Protein was transferred to nitrocellulose membrane and then blotted as described above for HA, FLAG, pSTAT3, EGFR, and STAT3.
However, the FP assay only measured the ability of S3I-1757 to displace the 7 amino acid fluorescein-labelled GpYLPQTV phosphotyrosine peptide from the SH2 domain of STAT3 protein in vitro. Therefore, it was determined if the intracellular reciprocal binding of 2 full-length STAT3 proteins is inhibited. To this end, an assay was developed to measure directly STAT3-STAT3 dimerization in intact cells by cloning HA-tagged STAT3 and FLAG-tagged STAT3, generating HEK293 cells that stably co-express HA-STAT3 and FLAG-STAT3 and using these cells for coimmunoprecipitation and co-localization. […] This assay was validated by treating the FLAG-STAT3/HA-STAT3 HEK293 cells with tyrosine phosphorylated or nonphosphorylated GYLPQTV peptide fused to a membrane-translocating sequence (MTS) to allow cell uptake. […]

[2] = target: dimerization of FLAG-STAT3 and HA-STAT3 (Mus musculus, UniProt P42227); test: co-localization of FLAG-STAT3 and HA-STAT3 by immunofluorescence; settings: HEK293 cells; 1, 2 or 4 hours
Procedure: HEK-293/FLAG-Stat3/HA-Stat3 cells were cultured (4000 cells per well) with G418 400 ug/ml in 8 well chamber slide. The cells were treated with S3I-1757 or S3I-1756 for 1 hour, 2 hours, or 4 hours. The cells were then rinsed with phosphate buffered saline (PBS), fixed with ice-cold methanol for 15 minutes, washed 3 times in PBS, permeabilized with 0.2% Triton X-100 for 15 minutes, and further washed 3-4 times with PBS. Cells were then blocked in 1% bovine serum albumin (BSA) for 30 min and incubated with anti-HA (Santa Cruz, Santa Cruz, Calif., USA) or anti-FLAG (Sigma, St. Louis, Mo., USA) primary antibody at 1:100 dilution at 4° C. overnight. Subsequently, cells were rinsed 4-5 times in PBS, incubated with Alexa fluor secondary antibody (Invitrogen, Carlsbad, Calif., USA) for 1 hour at room temperature in the dark. Cells were then washed 5 times with PBS, covered with cover slides with […] mounting medium containing DAPI (Vector Lab, Inc., Burlingame, Calif.), and examined immediately under Zeiss Upright Fluorescence Microscope (Zeiss, Thornwood, N.Y., USA).
HASTAT3/FLAG-STAT3/HEK 293 cells were treated with vehicle, S3I-1757 or S3I-1756 and the cells were processed for immunofluorescence staining for FLAG-STAT3 and HA-STAT3 and analyzed by confocal microscopy.

[3] = tested on: STAT3-responsive promoter-firefly luciferase reporter (pLucTKS3); test: luciferase reporter assay, STAT3-responsive promoter
Procedure: MDA-MB-468 cells were plated into 12-well plate with 4×10^5 cells per well. The cells were transiently transfected with pLucSRE, pLucTKS3 or STAT3-C with β-gal and then were treated with vehicle, S3I-1756 or S3I-1757 for 48 hours. Then cytosolic extracts of equal total protein were prepared from S3I-1757-treated or -untreated and analyzed for luciferase activity using a TD-20/20 luminometer (Turner Designs, Sunnyvale, Calif., USA) described by us previously.
To this end, MDA-MB-468 cells were transiently co-transfected with a STAT3-responsive promoter-firefly luciferase reporter (pLucTKS3) and 3-gal reporter used to normalize the transfection efficacy. To determine the selectivity of S3I-1757 to suppress STAT3-dependent over STAT3-independent transcriptional activation, MDA-MB-468 cells were also co-transfected with SRE promoter-renilla luciferase reporter (pLucSRE) and β-gal reporter. […] STAT3-C spontaneously dimerizes via disulfide bonds in the absence of tyrosine phosphorylation and is therefore not predicted to be inhibited by a small molecule that is designed to mimic phosphotyrosine binding.

[4] = tested on: MDA-MB-231 and A-549 cells; test: wound healing (migration) assay, cells with persistently activated STAT3
Procedure: A549, MDA-MB-231 and H460 cells were seeded at 6×10^5 cells per dish into 60 mm plate and allowed to grow overnight. Wounds were made the following day by scratching the cells with pipette tips (1-10 μL). Cells were treated with vehicle, S3I-1756 or S3I-1757 and allowed to migrate into the scratched area for 16 hours in regular growth medium. The migration of cells was visualized at 10× magnification using a Leica Microscope at time 0 (right before the drug was added) and 16 hours after vehicle, S3I-1756, or S3I-1757 treatments.
The cancer cells were cultured with serum-starved medium for 8 hours before scratching the cells with a pipette tip and treating with increasing concentrations of S3I-1757 for 24 hours. […] Finally, the ability of S3I-1757 to inhibit selectively invasion was determined.

[5] = tested on: MDA-MB-468, MDA-MB-231 and A-549 cells; test: Matrigel invasion assay, cells with activated STAT3; settings: 48 hours

Sequence of binding of FLAG-STAT3 to HA-STAT3 (P42227 whole entry): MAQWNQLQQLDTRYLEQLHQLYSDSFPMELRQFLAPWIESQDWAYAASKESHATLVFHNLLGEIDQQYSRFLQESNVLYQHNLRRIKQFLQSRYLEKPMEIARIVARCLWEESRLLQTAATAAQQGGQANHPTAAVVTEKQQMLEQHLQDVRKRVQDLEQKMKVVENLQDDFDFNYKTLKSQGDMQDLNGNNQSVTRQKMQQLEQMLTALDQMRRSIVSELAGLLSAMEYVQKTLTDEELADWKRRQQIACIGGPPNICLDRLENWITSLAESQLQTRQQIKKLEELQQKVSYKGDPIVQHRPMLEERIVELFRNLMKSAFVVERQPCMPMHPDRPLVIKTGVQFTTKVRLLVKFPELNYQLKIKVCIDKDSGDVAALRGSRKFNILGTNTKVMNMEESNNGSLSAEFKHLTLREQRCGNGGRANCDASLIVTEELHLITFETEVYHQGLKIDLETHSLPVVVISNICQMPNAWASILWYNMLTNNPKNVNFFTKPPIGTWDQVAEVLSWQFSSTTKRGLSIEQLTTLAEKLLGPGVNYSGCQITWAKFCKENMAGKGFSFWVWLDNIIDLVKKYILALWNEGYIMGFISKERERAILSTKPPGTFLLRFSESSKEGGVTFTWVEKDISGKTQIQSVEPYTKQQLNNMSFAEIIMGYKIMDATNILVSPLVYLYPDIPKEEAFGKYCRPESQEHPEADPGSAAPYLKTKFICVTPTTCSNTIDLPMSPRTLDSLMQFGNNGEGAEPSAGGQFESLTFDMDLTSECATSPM
Sequence of dimerization of FLAG-STAT3 and HA-STAT3 (P42227 whole entry): as above

STAT3-dependent luciferase activity (pLucTKS3) ([3]; MDA-MB-468, 48 hours): less luciferase activity
SMILES: O=C(O)c1cc(N(Cc2ccc(C3CCCCC3)cc2)C(=O)c2ccc(Oc3ccccc3)cc2)ccc1O [Compound 20g, 5-(N-(4-Cyclohexylbenzyl)-4-phenoxybenzamido)-2-hydroxybenzoic acid]
binding of FLAG-STAT3 to HA-STAT3 (co-immunoprecipitation) [1]: inhibited the binding of FLAG-STAT3 to HA-STAT3 in a concentration-dependent manner
co-localization of FLAG-STAT3 and HA-STAT3 (yellow color) [2]: progressively less yellow color over time
STAT3-dependent transcriptional activity in cells transfected with STAT3-C ([3]; MDA-MB-468 transfected with STAT3-C): rescued from the S3I-1757 inhibition
migration (wound healing), MDA-MB-231 and A-549 [4]: prevented this migration
invasion, MDA-MB-468, MDA-MB-231 and A-549 [5]: inhibited invasion
